According to patent US8263575B2, “Phosphoramidate derivatives of nucleoside compounds for use in the treatment of cancer” (Nucana Biomed Limited, priority 2005, dated 2012):
Like-named read-outs stand apart in the source and are kept apart here.

What was measured:
Format in all cases: cell-based
NB4 leukemia cell line = assay: MTS assay (CellTiter96 Aqueous One solution proliferation assay), NB4
Protocol: (§1) Compounds CPF203, CPF204, CPF194, CPF210, CPF211, CPF212, CPF218 and CPT2001 were each tested in leukaemic cell lines to assess their anti-cancer efficacy. The compounds were tested using the MTS assay reagents from Promega (CellTiter96 Aqueous One solution proliferation assay). The compounds were tested between 10 μM and 0.002 μM in four fold dilutions.
(§2) The cell lines employed are set out in Tables IA and IB below and are NB4, HL60, NB4R2, K562, KG1, and U937 leukemia cell lines.
(§3) Table IA gives the IC50±standard deviation value for each cell line and compound tested and for all the cell lines together, in μM. Included in Table IA below, as a comparative example, is corresponding cell line data for cladribine. Table IB gives the IC50 value for each cell line and compound tested. Included in Table IB below, as a comparative example, is corresponding cell line data for clofarabine.

HL60 leukemia cell line = assay: MTS assay (CellTiter96 Aqueous One solution proliferation assay), HL60; conditions: Table IA, read-out: IC50 ± standard deviation
Protocol: as §1, §2, §3

NB4R2 leukemia cell line = assay: MTS assay (CellTiter96 Aqueous One solution proliferation assay), NB4R2; conditions: Table IA, read-out: IC50 ± standard deviation
Protocol: as §1, §2, §3

K562 leukemia cell line = assay: MTS assay (CellTiter96 Aqueous One solution proliferation assay), K562; conditions: Table IA, read-out: IC50 ± standard deviation
Protocol: as §1, §2, §3

KG1 leukemia cell line = assay: MTS assay (CellTiter96 Aqueous One solution proliferation assay), KG1; conditions: Table IA, read-out: IC50 ± standard deviation
Protocol: as §1, §2, §3

U937 leukemia cell line = assay: MTS assay (CellTiter96 Aqueous One solution proliferation assay), U937
Protocol: as §1, §2, §3

leukaemic cell lines = assay: MTS assay, all the cell lines together; conditions: for IC50: All lines, Table IA, read-out: IC50 ± standard deviation, all the cell lines together; for anti-leukaemic potency/activity (in words): data of Table IA
Protocol: as §1, §2, §3

[1] = NB4, Table IA, read-out: IC50 ± standard deviation
[2] = U937, Table IA, read-out: IC50 ± standard deviation

| Compound | IC50 (NB4 leukemia cell line; [1]) | IC50 (HL60 leukemia cell line) | IC50 (NB4R2 leukemia cell line) | IC50 (K562 leukemia cell line) | IC50 (KG1 leukemia cell line) | IC50 (U937 leukemia cell line; [2]) | IC50 (leukaemic cell lines) | anti-leukaemic potency/activity (in words) (leukaemic cell lines) | IC50 (NB4 leukemia cell line) | IC50 (U937 leukemia cell line; Homo sapiens, U-937) | anti-cancer activity compared to clofarabine (leukaemic cell lines; data of Table IB (NB4, U937)) | IC50 (NB4 leukemia cell line; NB4, Table IB, read-out: IC50) | IC50 (U937 leukemia cell line; U937, Table IB, read-out: IC50) |
| --- | --- | --- | --- | --- | --- | --- | --- | --- | --- | --- | --- | --- | --- |
| C[C@H](NP(=O)(OC[C@H]1O[C@@H](n2cnc3c(N)nc(Cl)nc32)C[C@@H]1O)Oc1ccccc1)C(=O)OCc1ccccc1 (stereo partly drawn) [CPF204, 2-chloro-2′-deoxyadenosine-5′-[phenyl-(benzoxy-L-alaninyl)]-phosphate] | 0.23 ± 0.1 µM | 1.75 ± 0.89 µM | 0.63 ± 0.04 µM | – | 0.67 ± 0.2 µM | 0.08 ± 0.01 µM | 0.67 ± 0.7 µM | – | – | – | – | – | – |
| C[C@H](NP(=O)(OC[C@H]1O[C@@H](n2cnc3c(Cl)nc(N)nc32)C[C@@H]1O)Oc1ccccc1)C(=O)OCc1ccccc1 (stereo partly drawn) [CPF194, 2-amino-6-chloropurine-2′-deoxyriboside-5′-[phenyl-(benzoxy-L-alaninyl)]-phosphate] | – | – | – | – | 2.64 ± 0.18 µM | – | 2.64 ± 0.18 µM | anti-leukaemic activity demonstrated | – | – | – | – | – |
| Nc1nc(Cl)nc2c1ncn2[C@H]1C[C@H](O)[C@@H](CO)O1 [Cladribine, reference compound] | 9.39 ± 4.25 µM | 10.3 ± 3.46 µM | 7.81 ± 1.64 µM | – | 5.48 ± 1.86 µM | 2.08 ± 2.75 µM | 7.21 ± 3.69 µM | – | – | – | – | – | – |
| C[C@@H](NP(=O)(OCC1OC(n2cnc3c(N)nc(Cl)nc32)C(F)C1O)Oc1ccccc1)C(=O)OCc1ccccc1 (stereo partly shown) [CPT2001] | – | – | – | – | – | – | – | – | 0.12 µM | 0.08 µM | enhanced anti-cancer activity compared to clofarabine | – | – |
| Nc1nc(Cl)nc2c1ncn2[C@@H]1O[C@H](CO)[C@@H](O)[C@@H]1F [Clofarabine, reference compound] | – | – | – | – | – | – | – | – | – | – | – | 0.2 µM | 0.26 µM |

Now from value to compound, other results behind:

| IC50 (NB4 leukemia cell line; [1]) | IC50 (HL60 leukemia cell line) | IC50 (NB4R2 leukemia cell line) | IC50 (K562 leukemia cell line) | IC50 (KG1 leukemia cell line) | IC50 (U937 leukemia cell line; [2]) | IC50 (leukaemic cell lines) | Compound | anti-leukaemic potency/activity (in words) (leukaemic cell lines) | IC50 (NB4 leukemia cell line) | IC50 (U937 leukemia cell line; Homo sapiens, U-937) | anti-cancer activity compared to clofarabine (leukaemic cell lines; data of Table IB (NB4, U937)) | IC50 (NB4 leukemia cell line; NB4, Table IB, read-out: IC50) | IC50 (U937 leukemia cell line; U937, Table IB, read-out: IC50) |
| --- | --- | --- | --- | --- | --- | --- | --- | --- | --- | --- | --- | --- | --- |
| 0.24 ± 0.11 µM | 0.65 ± 0.19 µM | 1.03 ± 0.15 µM | 2.36 ± 1.57 µM | 1.8 ± 0.72 µM | 0.19 ± 0.09 µM | 1.04 ± 1.02 µM | C[C@H](NP(=O)(OC[C@H]1O[C@@H](n2cnc3c(N)nc(Cl)nc32)C[C@@H]1O)Oc1cccc2ccccc12)C(=O)OCc1ccccc1 (stereo partly drawn) [CPF210, 2-chloro-2′-deoxyadenosine-5′-[1-naphthyl-(benzoxy-L-alaninyl)]-phosphate] | greater anti-leukaemic potency than the corresponding compound CPF203 | – | – | – | – | – |
| 0.23 ± 0.04 µM | 1.78 ± 0.5 µM | 1.01 ± 0.39 µM | 5.8 ± 3.6 µM | 1.54 ± 0.44 µM | 0.14 ± 0.15 µM | 1.75 ± 2.34 µM | C[C@H](NP(=O)(OC[C@H]1O[C@@H](n2cnc3c(N)nc(Cl)nc32)C[C@@H]1O)Oc1cccc2ccccc12)C(=O)OCc1ccccc1 (stereo partly drawn) [CPF212, 2-chloro-2′-deoxyadenosine-5′-[1-naphthyl-(benzoxy-L-alaninyl)]-phosphate] | – | – | – | – | – | – |
| 1.16 ± 0.04 µM | 6.23 ± 1.75 µM | 2.28 ± 0.59 µM | – | 2.23 ± 0.69 µM | 1.29 ± 0.91 µM | 2.64 ± 2.09 µM | 2-chloro-2′-deoxyadenosine-5′-[phenyl-(methoxy-L-alaninyl)]-phosphate [CPF203] | – | – | – | – | – | – |
| 0.27 ± 0.03 µM | 1.75 ± 0.76 µM | 1.09 ± 0.04 µM | 4.41 ± 0.95 µM | 1.56 ± 0.25 µM | 0.55 ± 0.44 µM | 1.6 ± 1.47 µM | C[C@H](NP(=O)(OC[C@H]1O[C@@H](n2cnc3c(N)nc(Cl)nc32)C[C@@H]1O)Oc1ccc(Cl)c2ccccc12)C(=O)OCc1ccccc1 (stereo partly drawn) [CPF218, 2-chloro-2′-deoxyadenosine-5′-[4-chloro-1-naphthyl-(benzoxy-L-alaninyl)]-phosphate] | – | – | – | – | – | – |
| 0.43 ± 0.04 µM | 1.66 ± 0.24 µM | 1.18 ± 0.21 µM | 2.28 ± 1.32 µM | 2.63 ± 1.19 µM | 0.28 ± 0.03 µM | 1.41 ± 1.09 µM | C[C@H](NP(=O)(OC[C@H]1O[C@@H](n2cnc3c(N)nc(Cl)nc32)C[C@@H]1O)Oc1cccc2ccccc12)C(=O)OCc1ccccc1 (stereo partly drawn) [CPF211, 2-chloro-2′-deoxyadenosine-5′-[1-naphthyl-(benzoxy-L-alaninyl)]-phosphate] | – | – | – | – | – | – |
